In patent publication US6552022B1, “Benzamide derivatives and their use as ApoB-100 secretion inhibitors” (SmithKline Beecham Corporation, priority 1998, dated 2003):

Tests used:
[1] = test system: apoB-100; assay: Inhibition of apoB-100 secretion by primary human hepatocytes (35S-methionine labelling, SDS PAGE, Phosphorimager); type: cell-based; details: 8 hours incubation, tested from 1 μM to 1.6 nM, secretion of radiolabeled apoB-100, untreated cells as controls
Protocol: The ability of the compounds of the invention to inhibit the production of apoB-100 by human hepatocytes in vitro is determined using primary human hepatocytes as a model system. The specificity of the compounds of the invention is established by comparing the effects on apoB-100, apoprotein A-1, and fibrinogen production. A specificity of at least 100 is preferred.
Primary human hepatocytes were seeded at 50 000 cells/well in 96 well plates. After an overnight adhesion phase, cells were incubated with compounds for 8 hours in RPMI medium containing 1% FCS, 4 μg/ml insulin, 100 nM dexamethasone and 50 μCi/ml ^35S-methionine. […] Production of radiolabeled apoB-100 and apoA-1 (used as a selectivity control) was quantified by analysis of supermatants using SDS AGE and exposure of gels onto Phosphorimager screens. Inhibition of apo-100 and apoA-1 secretion by compounds was calculated taking untreated cells as controls, and IC50 of each compound was determined on both apoproteins.

Cc1ccc(C(=O)Nc2ccc(N3CCN(Cc4ccc[nH]4)CC3)cc2)c(-c2ccc(C(C)C)cc2)c1 [Example 63, 4′-Isopropyl-5-methyl-biphenyl-2-carboxylic Acid [4-(4-(1H-pyrrol-2-ylmethyl)-25 piperazin-1-yl)-phenyl]-amide]
IC50 [1]: 20 nM

Cc1cccc(C(=O)Nc2ccc(N3CCN(CC(N)=O)CC3)cc2)c1-c1ccc(C(F)(F)F)cc1 [Example 40, 6-Methyl-4′-trifluoromethyl-biphenyl-2-carboxylic acid [4-(4-carbamoylmethyl-piperazin-1-yl)-phenyl]-amide]
melting point: 196 to 198 °C

N#Cc1cccc(CN2CCN(c3ccc(NC(=O)c4ccccc4-c4ncc(-c5ccccc5)o4)cc3)CC2)c1 (hydrate or solvate) [Example 15, N-[4-[4-(3-Cyano-benzyl)-piperazin-1-yl]-phenyl]-2-(5-phenyl-oxazol-2-yl)-benzamide]
melting point: 209 to 211 °C

O=C(CN1CCN(c2ccc(NC(=O)c3ccccc3-c3ccc(C(F)(F)F)cc3)cc2)CC1)NCc1cccc(-c2ccccc2)c1 [Example 77, 4′-Trifluoromethyl-biphenyl-2-carboxylic Acid [4-(4{[(biphenyl-3-ylmethyl)-carbamoyl]-methyl}piperazin-1-yl)-phenyl]-amide]
melting point: 165 to 167 °C

O=C(Nc1ccc(N2CCN(Cc3cccc(F)c3)CC2)cc1)c1ccccc1-c1ccc(C(F)(F)F)cc1 (hydrate or solvate)
melting point: 189 to 190.5 °C

O=C(Nc1ccc(N2CCN(Cc3ccncc3)CC2)cc1)c1ccccc1-c1ccc(C(F)(F)F)cc1
melting point: 194 to 196 °C

N#Cc1cccc(C(=O)N2CCN(c3ccc(NC(=O)c4ccccc4-c4ccc(C(F)(F)F)cc4)cc3)CC2)c1 [Example 80, 4′-Trifluoromethyl-biphenyl-2-carboxylic Acid [4-[4-(3-cyano-benzoyl)-piperazin-1-yl]-phenyl]-amide]
melting point: 178.5 to 180 °C

COc1cccc(C(=O)Nc2ccc(N3CCN(Cc4cccc(C#N)c4)CC3)cc2)c1OCCC1CCCCC1 [Example 31, N-[4-[4-(3-Cyano-benzyl)-piperazin-1-yl]-phenyl]-2-(2-cyclohexyl-ethoxy)-3-methoxy-benzamide]
melting point: 102 to 104 °C

COc1cccc(C(=O)Nc2ccc(N3CCN(Cc4ccc[nH]4)CC3)cc2)c1-c1ccc(C(C)C)cc1 [Example 68, 4′-Isopropyl-6-methoxy-biphenyl-2-carboxylic acid [4-(4-(1H-pyrrol-2-ylmethyl)-piperazin-1-yl)-phenyl]-amide]
melting point: 195 to 197 °C

COc1ccc(-c2ccccc2C(=O)Nc2ccc(N3CCN(Cc4cccc(C#N)c4)CC3)cc2)cc1OC
melting point: 116 to 120 °C

N#Cc1cccc(CN2CCN(c3ccc(NC(=O)c4ccccc4-c4ccccc4)cc3)CC2)c1 (hydrate or solvate) [Example 11, Biphenyl-2-carboxylic acid (4-[4-(3-cyano-benzyl)-piperazin-1-yl]-phenyl]-amide]
melting point: 169 to 171 °C

COc1ccc(-c2ccc(C(F)(F)F)cc2)c(C(=O)Nc2ccc(N3CCN(Cc4cccc(C#N)c4)CC3)cc2)c1
melting point: 151 to 155 °C

O=C(Nc1ccc(N2CCN(Cc3c[nH]c4ccc(F)cc34)CC2)cc1)c1ccccc1-c1ccc(C(F)(F)F)cc1 [Example 73, 4′-Trifluoromethyl-biphenyl-2-carboxylic acid {4-[4-(5-fluoro-1H-indol-3-ylmethyl)-piperazin-1-yl]-phenyl}-amide]
melting point: 168 to 170 °C

COc1cccc(C(=O)Nc2ccc(N3CCN(Cc4cccc(C#N)c4)CC3)cc2)c1OCCc1ccccc1 [Example 30, N-[4-[4-(3-Cyano-benzyl)-piperazin-1-yl]-phenyl]-3-methoxy-2-phenethyloxy-benzamide]
melting point: 140 to 142 °C

N#Cc1cccc(CN2CCN(c3ccc(NC(=O)c4ccccc4-c4cccc(C(F)(F)F)c4)cc3)CC2)c1
melting point: 117 to 121 °C

Cc1ccc(-c2ccccc2C(=O)Nc2ccc(N3CCN(Cc4cccc(C#N)c4)CC3)cc2)c(C)c1
melting point: 72 to 76 °C

N#Cc1cccc(CN2CCN(c3ccc(NC(=O)c4ccccc4-c4ccccn4)cc3)CC2)c1 [Example 86, N-{4-[4-(3-Cyano-benzyl)-piperazin-1-yl]-phenyl}-2-pyridin-2-yl-benzamide]
melting point: 169 to 171 °C

N#Cc1cccc(CN2CCN(c3ccc(NC(=O)c4ccccc4-n4cccc4)cc3)CC2)c1 [Example 85, N-{4-[4-(3-Cyano-benzyl)-piperazin-1-yl]-phenyl}-2-pyrrol-1-yl-benzamide]
melting point: 174 °C

O=C(Nc1ccc(N2CCN(Cc3cc[nH]n3)CC2)cc1)c1ccccc1-c1ccc(C(F)(F)F)cc1 [Example 71, 4′-Trifluoromethyl-biphenyl-2-carboxylic acid {4-[4-(1H-pyrazole-3-ylmethyl)-piperazine-1-yl]-phenyl}-amide]
melting point: 194 to 196 °C

N#Cc1cccc(CN2CCN(c3ccc(NC(=O)c4ccccc4OCCC4CCCCC4)cc3)CC2)c1 [Example 32, N-[4-[4-(3-Cyano-benzyl)-piperazin-1-yl]-phenyl]-2-(2-cyclohexyl-ethoxy)-benzamide]
melting point: 119 to 121 °C

N#Cc1cccc(CN2CCN(c3cccc(NC(=O)c4ccccc4-c4ccc(C(F)(F)F)cc4)c3)CC2)c1 [Example 36, 4′-Trifluoromethyl-biphenyl-2-carboxylic Acid [3-[4-(3-cyano-benzyl)-piperazin-1-yl]-phenyl]-amide]
melting point: 170 to 172 °C

COc1cccc(C(=O)Nc2ccc(N3CCN(Cc4cccc(C#N)c4)CC3)cc2)c1-c1ccc(C(F)(F)F)cc1 [Example 8, 6-Methoxy-4′-trifluoromethyl-biphenyl-2-carboxylic acid [4-[4-(3-cyano-benzyl)-piperazin-1-yl]-phenyl]-amide]
melting point: 215 to 217 °C

O=C(Nc1ccc(N2CCN(Cc3ccc4c(c3)OCO4)CC2)cc1)c1ccccc1-c1ccc(C(F)(F)F)cc1 [Example 48, 4′-Trifluoromethyl-biphenyl-2-carboxylic acid [4-(4-(3,4-methylenedioxy-benzyl)-piperazin-1-yl)-phenyl]-amide]
melting point: 189 to 191 °C

Cc1ccc(-c2ccccc2C(=O)Nc2ccc(N3CCN(Cc4cccc(C#N)c4)CC3)cc2)cc1C
melting point: 140 to 144 °C

N#Cc1cccc(CN2CCN(c3ccc(NC(=O)c4ccc(Cl)cc4-c4ccc(C(F)(F)F)cc4)cc3)CC2)c1 [Example 10, 5-Chloro-4′-trifluoromethyl-biphenyl-2-carboxylic acid [4-[4-(3-cyano-benzyl)-piperazin-1-yl]-phenyl]-amide]
melting point: 164 to 165 °C

COC(=O)c1cccc(CN2CCN(c3ccc(NC(=O)c4ccccc4-c4ccc(C(F)(F)F)cc4)cc3)CC2)c1 [Example 55, 4′-Trifluoromethyl-biphenyl-2-carboxylic acid [4-[4-(3-carbomethoxy-benzyl)-piperazin-1-yl]-phenyl]-amide]
melting point: 190 to 192 °C

Cc1ccc(-c2ccc(C(F)(F)F)cc2)c(C(=O)Nc2ccc(N3CCN(Cc4cccc(C#N)c4)CC3)cc2)c1
melting point: 120 to 124 °C

COc1cccc(C(=O)Nc2ccc(N3CCN(Cc4cccc(C#N)c4)CC3)cc2)c1OCc1ccc(F)cc1 [Example 29, N-[4-[4-(3-Cyano-benzyl)-piperazin-1-yl]-phenyl]-2-(4-fluoro-benzyloxy)-3-methoxy-benzamide]
melting point: 118 to 120 °C

COc1ccc(C(=O)Nc2ccc(N3CCN(Cc4cccc(C#N)c4)CC3)cc2)c(-c2ccccc2)c1 [Example 12, 5-Methoxy-biphenyl-2-carboxylic acid [4-[4-(3-cyano-benzyl)-piperazin-1-yl]-phenyl]-amide]
melting point: 159 to 161 °C

COc1cccc(CN2CCN(c3ccc(NC(=O)c4ccccc4-c4ccc(C(F)(F)F)cc4)cc3)CC2)c1 (hydrate or solvate)
melting point: 168 to 170 °C

NC(=O)c1cccc(CN2CCN(c3ccc(NC(=O)c4ccccc4-c4ccc(C(F)(F)F)cc4)cc3)CC2)c1 [Example 50, 4′-Trifluoromethyl-biphenyl-2-carboxylic acid {4-[4-(3-carbamoyl-benzyl)-piperazin-1-yl]-phenyl)amide]
melting point: 199 to 201 °C

CS(=O)(=O)N1CCN(c2ccc(NC(=O)c3ccccc3-c3ccc(C(F)(F)F)cc3)cc2)CC1 [Example 83, 4′-Trifluoromethyl-biphenyl-2-carboxylic Acid [4-(4-methanesulfonyl-piperazin-1-yl)-phenyl]-amide]
melting point: 254 to 256 °C

COc1cccc(C(=O)Nc2ccc(N3CCN(Cc4cccc(C#N)c4)CC3)cc2)c1OCc1ccc(C(F)(F)F)cc1 [Example 28, N-[4-[4-(3-Cyano-benzyl)-piperazin-1-yl]-phenyl]-3-methoxy-2-(4-trifluoromethyl-benzyloxy)-benzamide]
melting point: 118 to 119.5 °C

CC(C)c1ccc(-c2ccccc2C(=O)Nc2ccc(N3CCN(Cc4cccc(C#N)c4)CC3)cc2)cc1
melting point: 133 to 135 °C

COc1cccc(C(=O)Nc2ccc(N3CCN(Cc4cccc(-c5nc(C)no5)c4)CC3)cc2)c1-c1ccc(C(C)C)cc1 [Example 74, 4′-Isopropyl-6-methoxy-biphenyl-2-carboxylic acid (4-(4-(3-(3-methyl-[1,2,4]oxadiazol-5-yl)-benzyl)-piperazine-1-yl)-phenyl)-amide]
melting point: 180 to 182 °C

COc1cccc(C(=O)Nc2ccc(N3CCN(Cc4cccc(C#N)c4)CC3)cc2)c1OCCCc1ccccc1 [Example 33, N-[4-[4-(3-Cyano-benzyl)-piperazin-1-yl]-phenyl]-3-methoxy-2-(3-phenyl-propoxy)-benzamide]
melting point: 134 to 136 °C
